Measurements from patent publication US7339026B2, “mda-9 protein” (The Trustees of Columbia University In the City of New York, priority 1996, dated 2008).

How the values were obtained:
Format in all cases: cell-based, human
[1] = system: C8161; assay: Effect of recombinant immune interferon (IFN-γ) on growth (cell numbers); conditions: 96 hr
Excerpt: (§1) Cell lines and culture conditions. H0-1 is a melanotic melanoma cell line produced from a metastatic inguinal node lesion from a person and was used between passages 170 and 200 (Giovanella et al., 1976; Huberman et al., 1979; Fisher et al., 1985). C8161 is a highly metastatic amelanotic human melanoma cell line derived from an abdominal wall metastasis (Welch et al., 1991). FM516-SV is a normal human melanocyte culture immortalized by the SV40 T-antigen gene (Melber et al., 1989). The WM35 cell line was isolated from a patient with a radial growth phase primary melanoma (Herlyn, 1990). The WM278 cell line is from a patient with an early vertical growth phase primary melanoma (Herlyn, 1990). Cultures were grown at 37° C. in a 95% air 5% C02-humidified incubator in Dulbecco's modified Eagle's medium (DMEM) supplemented with 5 or 10% fetal bovine serum. Cultures were maintained in the logarithmic phase of growth by subculturing (1:5 or 1:10) prior to confluence approximately every 4 to 7 D.

[2] = system: WM278; assay: as above; conditions: 96 hr
Excerpt: as §1

[3] = system: WM35; assay: as above; conditions: 96 hr
Excerpt: as §1

[4] = system: FM516-SV; assay: as above; conditions: 96 hr
Excerpt: as §1

[5] = system: H0-1; assay: as above; conditions: 96 hr
Excerpt: as §1

[6] = system: mda-9 expression in FM516-SV cells; assay: mda-9 RNA expression by Northern blotting, densitometer comparison with GAPDH
Description: FIG. 2. Effects of IFN-β+MEZ on mda-9 expression in human melanoma cells and an SV40-immortalized human melanocyte cell line. The indicated cell line was grown in the presence or absence of IFN-β+MEZ (2000 U/ml+10 ng/ml) for 96 h and RNA was analyzed as described in FIG. 1.
Cell Lines and Culture Conditions. H0-1 is a melanotic melanoma cell line produced from a metastatic inguinal lymph node lesion from a person and was used between passages 150 and 175 (13,21,22). FM516-SV is a normal human melanocyte culture immortalized by the SV40 T-antigen gene (23). Additional melanoma cell lines established from patients with metastatic melanomas that were evaluated, include LO-1, SH-1, WM239, MeWo, SKMEL-p53 wt (containing a wild-type p53 gene) and SKMEL-p53 mut (containing a mutant p53 gene) (13,21,24). Cultures were grown at 37° C. in a 95% air 5% C02-humidified incubator in Dulbecco's modified Eagle's medium (DMEM) supplemented with 5 or 10% fetal bovine serum (Hyclone, Utah). […] Total cytoplasmic RNA was isolated at various time points and analyzed for mda-9 and GAPDH expression.
RNA Isolation, Northern Blotting and Southern Blotting of Genomic DNAs. […] RNA blots were quantitated by densitometric analysis using a Molecular Dynamics densitometer (Sunnyvale, Calif.) (34). […]

[7] = system: mda-9 expression in H0-1 cells; assay: mda-9 RNA expression by Northern blotting, equalized to GAPDH
Description: FIG. 1. Temporal expression of mda-9 in H0-1 cells exposed to IFN-β+MEZ. RNAs were isolated from untreated and H0-1 cells treated with IFN-β+MEZ (2000 U/ml+10 ng/ml) for 0.25, 0.5, 1, 2, 4, 8, 12 and 24 h. Ten micrograms of total cellular RNA were separated on 1% agarose gel, transferred to nylon membranes, sequentially hybridized with an mda-9 and then a GAPDH probe, and then exposed to autoradiography.
FIG. 4. Effect of interferons on mda-9 expression in H0-1 cells. H0-1 cells were grown for 96 h in the absence or presence of IFN-α (100 and 1000 U/ml), IFN-β (100 and 1000 U/ml) or IFN-γ (100 U/ml) and RNA was analyzed as described in FIG. 1.
FIGS. 9A-9B. Temporal and dose kinetics of IFN-γ enhancement in mda-9 expression in H0-1 human melanoma cells. H0-1 cells were treated for the indicated time (FIG. 9A) and dose (FIG. 9B) of IFN-γ, RNA was then isolated and analyzed by Northern blotting. […] Replicate samples varied by ≦15%.
(§2) Cell Lines and Culture Conditions. H0-1 is a melanotic melanoma cell line produced from a metastatic inguinal lymph node lesion from a person and was used between passages 150 and 175 (13,21,22). FM516-SV is a normal human melanocyte culture immortalized by the SV40 T-antigen gene (23). Additional melanoma cell lines established from patients with metastatic melanomas that were evaluated, include LO-1, SH-1, WM239, MeWo, SKMEL-p53 wt (containing a wild-type p53 gene) and SKMEL-p53 mut (containing a mutant p53 gene) (13,21,24). Cultures were grown at 37° C. in a 95% air 5% C02-humidified incubator in Dulbecco's modified Eagle's medium (DMEM) supplemented with 5 or 10% fetal bovine serum (Hyclone, Utah). Cultures were maintained in the logarithmic phase of growth by subculturing (1:5 or 1:10) prior to confluence approximately every 4 to 7 d. For determining steady-state RNA expression, cultures were seeded at 1.5×10^6 cells per 10-cm tissue culture plate, and 24 h later the medium was changed without inducers or with IFN-β (2000 U/ml), MEZ (10 ng/ml) or IFN-β+MEZ (2000 U/ml+10 ng/ml). Total cytoplasmic RNA was isolated at various time points and analyzed for mda-9 and GAPDH expression.
RNA Isolation, Northern Blotting and Southern Blotting of Genomic DNAs. Total cellular RNA was isolated by the guanidinium/phenol procedure and Northern blotting was performed as described (30-32). Ten μg of RNA were denatured with glyoxal/dimethyl sulfoxide (DMSO), electrophoresed on 1.0% agarose gels, transferred to nylon membranes and hybridized to a ^32P-labeled mda-9 probe and then after stripping the membranes were hybridized to a ^32P-labeled rat GAPDH probe (33) as described previously (30-32). […] RNA blots were quantitated by densitometric analysis using a Molecular Dynamics densitometer (Sunnyvale, Calif.) (34). […]

[8] = system: H0-1 cells; assay: Effect of interferons on growth of H0-1 cells (FIG. 3); conditions: 4 d treatment with 100 U/ml interferon
Description: FIG. 3. […] Results are the average cell number ±S.D. from the mean.
Experiments were performed to determine if a relationship exists between growth suppression and reduced mda-9 expression. To test this connection, the effect of interferon and MEZ treatment on proliferation and mda-9 expression in human melanoma cells was determined.

[9] = system: MeWo; assay: Growth of cell line with IFN-β and MEZ, alone and in combination (Coulter Counter cell numbers); conditions: 96-h growth, IFN-β 2000 U/ml, MEZ 10 ng/ml, IFN-β + MEZ 2000 U/ml + 10 ng/ml
Description: as §2

[10] = system: SKMEL-p53 wt; assay: as above; conditions: 96-h growth, IFN-β 2000 U/ml, MEZ 10 ng/ml, IFN-β + MEZ 2000 U/ml + 10 ng/ml
Description: as §2

[11] = system: SH-1; assay: as above; conditions: 96-h growth, IFN-β 2000 U/ml, MEZ 10 ng/ml, IFN-β + MEZ 2000 U/ml + 10 ng/ml
Description: as §2

[12] = system: LO-1; assay: as above; conditions: 96-h growth, IFN-β 2000 U/ml, MEZ 10 ng/ml, IFN-β + MEZ 2000 U/ml + 10 ng/ml
Description: as §2

[13] = system: SKMEL-p53 mut; assay: as above; conditions: 96-h growth, IFN-β 2000 U/ml, MEZ 10 ng/ml, IFN-β + MEZ 2000 U/ml + 10 ng/ml
Description: as §2

[14] = system: WM239; assay: as above; conditions: 96-h growth, IFN-β 2000 U/ml, MEZ 10 ng/ml, IFN-β + MEZ 2000 U/ml + 10 ng/ml
Description: as §2

[15] = system: FM516-SV; assay: as above; conditions: 96-h growth, IFN-β 2000 U/ml, MEZ 10 ng/ml, IFN-β + MEZ 2000 U/ml + 10 ng/ml
Description: as §2

[16] = system: HO-1; assay: as above; conditions: for Cell numbers (average of triplicate plates ± S.D.) / percent of control growth: HO-1, 96-h growth, IFN-β 2000 U/ml, MEZ 10 ng/ml, IFN-β + MEZ 2000 U/ml + 10 ng/ml
Description: as §2

[17] = H0-1 cells grown for 4 days in 10 ng/ml of MEZ

IFN-γ: Recombinant human IFN-γ (type II, immune interferon)
average cell number ± S.D. ([1]; 1 U/ml of IFN-γ): 24.4 ± 0.8 | percent of cell number reduction versus control ([1]; 1 U/ml of IFN-γ): 30% | average cell number ± S.D. ([1]; 10 U/ml of IFN-γ): 25.1 ± 0.8 | percent of cell number reduction versus control ([1]; 10 U/ml of IFN-γ): 28% | average cell number ± S.D. ([1]; 100 U/ml of IFN-γ): 22.2 ± 1.4 | percent of cell number reduction versus control ([1]; 100 U/ml of IFN-γ): 36% | average cell number ± S.D. ([2]; 1 U/ml of IFN-γ): 14.9 ± 0.8 | percent of cell number reduction versus control ([2]; 1 U/ml of IFN-γ): 33% | average cell number ± S.D. ([2]; 10 U/ml of IFN-γ): 12.7 ± 1.0 | percent of cell number reduction versus control ([2]; 10 U/ml of IFN-γ): 42% | average cell number ± S.D. ([2]; 100 U/ml of IFN-γ): 12.5 ± 0.6 | percent of cell number reduction versus control ([2]; 100 U/ml of IFN-γ): 44% | average cell number ± S.D. ([3]; 1 U/ml of IFN-γ): 84.8 ± 6.7 | percent of cell number reduction versus control ([3]; 1 U/ml of IFN-γ): 2% | average cell number ± S.D. ([3]; 10 U/ml of IFN-γ): 62.7 ± 4.3 | percent of cell number reduction versus control ([3]; 10 U/ml of IFN-γ): 28% | average cell number ± S.D. ([3]; 100 U/ml of IFN-γ): 28.2 ± 1.7 | percent of cell number reduction versus control ([3]; 100 U/ml of IFN-γ): 67% | average cell number ± S.D. ([4]; 1 U/ml of IFN-γ): 16.8 ± 0.5 | percent of cell number reduction versus control ([4]; 1 U/ml of IFN-γ): 19% | average cell number ± S.D. ([4]; 10 U/ml of IFN-γ): 9.8 ± 0.6 | percent of cell number reduction versus control ([4]; 10 U/ml of IFN-γ): 52% | average cell number ± S.D. ([4]; 100 U/ml of IFN-γ): 5.1 ± 0.3 | percent of cell number reduction versus control ([4]; 100 U/ml of IFN-γ): 75% | average cell number ± S.D. ([5]; 1 U/ml of IFN-γ): 15.8 ± 0.5 | percent of cell number reduction versus control ([5]; 1 U/ml of IFN-γ): 22% | average cell number ± S.D. ([5]; 10 U/ml of IFN-γ): 15.4 ± 0.3 | percent of cell number reduction versus control ([5]; 10 U/ml of IFN-γ): 24% | average cell number ± S.D. ([5]; 100 U/ml of IFN-γ): 11.5 ± 1.3 | percent of cell number reduction versus control ([5]; 100 U/ml of IFN-γ): 44% | dose giving maximum enhancing effects on mda-9 expression ([6]; IFN-γ dose-response): 10 U/ml | low dose at which mda-9 expression is elevated ([6]; IFN-γ dose-response (data not shown)): 0.1 U/ml | time at which enhanced mda-9 expression is apparent ([7]; H0-1, 100 U/ml of recombinant human IFN-γ): ≤ 2 h | dose giving maximum enhancing effects on mda-9 expression ([7]; H0-1, IFN-γ dose-response): 10 U/ml | low dose at which mda-9 expression is elevated ([7]; H0-1, IFN-γ dose-response): 0.1 U/ml | reduction of H0-1 growth [8]: ~43%

C=C(C)[C@@]12O[C@@]3(c4ccccc4)O[C@@H]1[C@@H]1[C@@H]4O[C@]4(CO)[C@@H](O)[C@]4(O)C(=O)C(C)=C[C@H]4[C@@]1(O3)[C@H](C)[C@H]2OC(=O)/C=C/C=C/c1ccccc1 [MEZ, mezerein, reference compound]
mda-9 expression [7, 17]: unaffected | Cell numbers (average of triplicate plates ± S.D.) [9]: 15.4 ± 1.9 | percent of control growth [9]: 46% | Cell numbers (average of triplicate plates ± S.D.) [10]: 3.6 ± 0.7 | percent of control growth [10]: 21% | Cell numbers (average of triplicate plates ± S.D.) [11]: 14.1 ± 0.3 | percent of control growth [11]: 57% | Cell numbers (average of triplicate plates ± S.D.) [12]: 4.7 ± 0.4 | percent of control growth [12]: 28% | Cell numbers (average of triplicate plates ± S.D.) [13]: 21.5 ± 4.3 | percent of control growth [13]: 60% | Cell numbers (average of triplicate plates ± S.D.) [14]: 19.7 ± 1.2 | percent of control growth [14]: 40% | Cell numbers (average of triplicate plates ± S.D.) [15]: 12.7 ± 1.8 | percent of control growth [15]: 60% | growth reduction [16, 17]: ~74% | Cell numbers (average of triplicate plates ± S.D.) [16]: 16.8 ± 1.0 | percent of control growth [16]: 26%

B1: IFN-β: Recombinant human IFN-β, with a serine substituted for a cysteine at position 17 of the molecule (protein, UniProt P01574 22-187, looked up, variant C17S)
Interferon beta: MSYNLLGFLQRSSNFQSQKLLWQLNGRLEYCLKDRMNFDIPEEIKQLQQFQKEDAALTIYEMLQNIFAIFRQDSSSTGWNETIVENLLANVYHQINHLKTVLEEKLEKEDFTRGKLMSSLHLKRYYGRILHYLKAKEYSHCAWTIVRVEILRNFYFINRLTGYLRN
reduction of H0-1 growth [8]: ~70% | Cell numbers (average of triplicate plates ± S.D.) [9]: 15.6 ± 1.9 | percent of control growth [9]: (46) % | Cell numbers (average of triplicate plates ± S.D.) [10]: 9.1 ± 0.3 | percent of control growth [10]: (54) % | Cell numbers (average of triplicate plates ± S.D.) [11]: 14.3 ± 1.5 | percent of control growth [11]: (57) % | Cell numbers (average of triplicate plates ± S.D.) [12]: 1.3 ± 0.3 | percent of control growth [12]: (8) % | Cell numbers (average of triplicate plates ± S.D.) [13]: 39.5 ± 7.5 | percent of control growth [13]: (109) % | Cell numbers (average of triplicate plates ± S.D.) [14]: 9.5 ± 0.9 | percent of control growth [14]: (19) % | Cell numbers (average of triplicate plates ± S.D.) [15]: 7.8 ± 1.0 | percent of control growth [15]: (37) % | Cell numbers (average of triplicate plates ± S.D.) [16]: 14.0 ± 2.6 | percent of control growth [16]: (22) %
